Reference: article PMC7064328 (Environmental Health Perspectives, 2020)
Where “and” joins values, the source holds several entries; their conditions need not be identical. Identical values can stand only once.

Assays:
Assay type in all cases: in vivo, mouse (CD-1)
Pregnant CD-1 mice = test: Maternal indices: dam body weight, gestational weight gain, liver and kidney weight after daily oral gavage E1.5 to E11.5 or E17.5; conditions: for E0.5 weight: baseline; for Relative GWG, E11.5 estimate (95% CI) / Relative GWG, E17.5 Estimate (95% CI) / Relative GWG, E11.5 Estimate (95% CI) relative to VC: adjusted for litter size
Experimental: Naïve female CD-1 mice between 7.5 and 15.5 wk of age from the NIEHS colony were bred in-house on a single night, and copulatory plug–positive females were identified on embryonic day (E) 0.5. Pregnant dams were singly housed in ventilated polypropylene cages and received nesting materials, National Institutes of Health (NIH)-31 diet (Zeigler Bros., Inc.) and reverse osmosis deionized (RODI) water ad libitum. Animals were housed in humidity- and temperature-controlled rooms with 25°C and 45–60% average humidity and standard 12-h light cycles. All animal procedures were approved by the NIEHS Animal Care and Use Committee (ASP #2017-0022).
PFOA and GenX dosing solutions were prepared in RODI water and administered to mice once daily via oral gavage. Daily doses were administered between 0700 and 0800 hours and adjusted to the BW of the mouse based on the previous day’s weight at a volume of 0.01mL/g BW. […] The dose of 1mg/kg BW/d PFOA, used in the mouse developmental toxicity study of [Lau et al. 2006], provided a lowest effect dose that was used to set the reference dose within the U.S. EPA’s drinking water lifetime health advisory level (HAL) of 70 ppt PFOA ([U.S. EPA 2016]).
This experiment was conducted over two blocks (Block 1 and Block 2) to achieve a total of n=11–13 litters per treatment group and sacrifice time point (E11.5 and E17.5). The experimental design of the second block was identical to the first block of the study, and experimental methods were similar but expanded upon to include more rigorous and detailed measurements. Copulatory plug–positive mice (E0.5) were weighed to obtain a baseline BW and placed into one of five groups. Once all mice were assigned to groups, mean BWs were calculated, and a few animals were reassigned so that mean BWs in each group were similar. This was done to avoid confounding effects of baseline BW. Treatment groups were then randomly assigned a color by using a random sequence generator. Experimenters and dosing technicians were blinded to the treatment group to which the color groups corresponded throughout the duration of the study, including at necropsy. […] Pregnant dams were dosed via oral gavage from E1.5 to E11.5 or from E1.5 to E17.5. […] The E11.5 early-gestation time point was selected because it overlaps a critical period of placental development in the mouse where the placenta undergoes vascularization with the uterine wall and chorioallantoic branching of vessels begins ([Watson and Cross 2005]). The E17.5 late-gestation time point was selected so that embryo weight changes that may be related to treatment would be evident.
On the day of necropsy, dams received daily oral gavage between 0700 and 0800 hours and were weighed and then euthanized humanely by swift decapitation, and serum was collected. In Block 1, necropsies were completed from 0800 to 1600 hours, and in Block 2, necropsies were completed from 0800 to 1200 hours. Serum from dams euthanized in Block 1 was snap frozen for internal dosimetry analyses. Serum and urine from Block 2 dams were reserved for clinical chemistry analyses. In both blocks, the uterus was removed, and total implantation sites were counted based on gross observation of an implantation nodule along the uterine horn. Viable embryos, nonviable embryos, and sites of resorption were counted based on gross observation. Embryos were considered viable if they were properly formed, were not pale in color, and were of similar size to neighboring embryos. Embryos that were poorly formed and pale in color (without heartbeat) were considered nonviable. Sites of resorption were defined as a dark red–appearing clot-like nodule apparent on gross observation.
From each uterus, first, viable embryos and their matched placentas were collected in succession within a horn and immediately snap frozen ( n=2–5 per litter ), and subsequent embryos were collected for growth measurements ( n=2–11 per litter ). […]

maternal liver = test: Transmission electron microscopy of dam liver; conditions: E17.5
Excerpt: Block 2 dam liver portions stored in McDowell and Trump’s fixative ([McDowell and Trump 1976]) were processed using a Leica EM TP processor. Briefly, samples were rinsed with buffer, postfixed in 1% osmium tetroxide in 0.1-M phosphate buffer, rinsed in distilled water, dehydrated, and embedded in Ply/Bed® 812 (Polysciences, Inc.) epoxide resin. Blocks were trimmed, and semithin sections ( ∼0.5μm ) were stained with 1% toluidine blue (Poly-scientific R&D Corp.) O in 1% sodium borate to ascertain areas of interest. Ultrathin sections ( […] ) were cut from areas of interest and placed on 200-mesh copper grids and stained with uranyl acetate and lead citrate, and digital images were captured using an Orius® SC1000 side mount camera (Gatan) attached to a Techani T12 transmission electron microscope (TEM) (FEI Company). In general, peroxisomes were smaller than mitochondria and round with a dark, electron-dense, granular matrix and surrounded by a single membrane. […] Samples were analyzed by R.D.K., Ph.D.

[1] = Internal dosimetry of PFOA and GenX in maternal serum, maternal liver, amniotic fluid and whole embryos (UPLC-MS/MS)
Experimental: Solid tissues were homogenized in RODI water at a ratio of approximately 1:3 tissue mass (milligrams) to liquid volume (microliters). Maternal serum, amniotic fluid, and tissue homogenates ( 25μL ) were spiked with internal standard suspended in 0.1M formic acid in a denaturation step, followed by a subsequent protein crash using ice-cold acetonitrile. Samples were vortex mixed after addition of formic acid and acetonitrile and then centrifuged at 10,000×g for 5 min. Extract supernatants were separated using a Waters ACQUITY UPLC® (Waters Corporation) fitted with a Waters ACQUITY UPLC® BEH C18 Column ( 130Å; 1.7μm; 2.1mm×50mm ). Detection was performed using a Waters Quattro Premier™ XE tandem quadrupole mass spectrometer in negative ionization mode.

For `O=C(O)C(F)(F)C(F)(F)C(F)(F)C(F)(F)C(F)(F)C(F)(F)C(F)(F)F` [PFOA, Perfluorooctanoic acid], the Kidney weight (Pregnant CD-1 mice; E11.5, 1 mg/kg/d) was 0.20 ± 0.02 g, the Liver weight (Pregnant CD-1 mice; E11.5, 1 mg/kg/d) was 2.9 ± 0.2 g and the Relative kidney weight (Pregnant CD-1 mice; E11.5, 1 mg/kg/d) was 0.51±0.04 % BW. The Relative liver weight (Pregnant CD-1 mice; E11.5, 1 mg/kg/d) was 7.4±0.5 % BW, the Weight at necropsy (Pregnant CD-1 mice; E11.5, 1 mg/kg/d) was 38.8 ± 2.4 g and the “Weight at necropsy (% change from E0.5)” value (Pregnant CD-1 mice; E11.5, 1 mg/kg/d) was 24.7±6.3%. The Kidney weight (Pregnant CD-1 mice; E11.5, 5 mg/kg/d) was 0.21 ± 0.03 g, the Liver weight (Pregnant CD-1 mice; E11.5, 5 mg/kg/d) was 4.5 ± 0.5 g and the Relative kidney weight (Pregnant CD-1 mice; E11.5, 5 mg/kg/d) was 0.51±0.05 % BW. For the same molecule, the Relative liver weight (Pregnant CD-1 mice; E11.5, 5 mg/kg/d) was 11.0±0.9 % BW, the Weight at necropsy (Pregnant CD-1 mice; E11.5, 5 mg/kg/d) was 40.2 ± 3.5 g and the “Weight at necropsy (% change from E0.5)” value (Pregnant CD-1 mice; E11.5, 5 mg/kg/d) was 29.6±6.3%. For the same molecule, the E0.5 weight (Pregnant CD-1 mice; E11.5 group, 1 mg/kg/d) was 31.2 ± 3 g, the E0.5 weight (Pregnant CD-1 mice; E11.5 group, 5 mg/kg/d) was 31.1 ± 3.2 g and the Kidney weight (Pregnant CD-1 mice; E17.5, 1 mg/kg/d) was 0.22 ± 0.04 g. For the same molecule, the Liver weight (Pregnant CD-1 mice; E17.5, 1 mg/kg/d) was 3.1 ± 0.4 g, the Relative kidney weight (Pregnant CD-1 mice; E17.5, 1 mg/kg/d) was 0.40±0.04 % BW and the Relative liver weight (Pregnant CD-1 mice; E17.5, 1 mg/kg/d) was 5.6±0.5 % BW. For the same molecule, the Weight at necropsy (Pregnant CD-1 mice; E17.5, 1 mg/kg/d) was 54.6 ± 5.3 g, the “Weight at necropsy (% change from E0.5)” value (Pregnant CD-1 mice; E17.5, 1 mg/kg/d) was 92.6±17.1% and the Kidney weight (Pregnant CD-1 mice; E17.5, 5 mg/kg/d) was 0.24 ± 0.03 g. For the same molecule, the Liver weight (Pregnant CD-1 mice; E17.5, 5 mg/kg/d) was 5.3 ± 0.5 g, the Relative kidney weight (Pregnant CD-1 mice; E17.5, 5 mg/kg/d) was 0.40±0.03 % BW and the Relative liver weight (Pregnant CD-1 mice; E17.5, 5 mg/kg/d) was 9.3±0.7 % BW. The Weight at necropsy (Pregnant CD-1 mice; E17.5, 5 mg/kg/d) was 57.4 ± 6.0 g, the “Weight at necropsy (% change from E0.5)” value (Pregnant CD-1 mice; E17.5, 5 mg/kg/d) was 98.7±20.2% and the E0.5 weight (Pregnant CD-1 mice; E17.5 group, 1 mg/kg/d) was 28.5 ± 3.8 g. The E0.5 weight (Pregnant CD-1 mice; E17.5 group, 5 mg/kg/d) was 29.1 ± 3.4 g, the “Relative GWG, E11.5 estimate (95% CI)” value (Pregnant CD-1 mice; 1 mg/kg/d) was 16.2 (-0.2, 32.5) % gain from embryonic day 0.5 and the “Relative GWG, E17.5 Estimate (95% CI)” value (Pregnant CD-1 mice; 1 mg/kg/d) was 44.9 (6.5, 83.3) % gain from embryonic day 0.5. The “Relative GWG, E11.5 Estimate (95% CI) relative to VC” value (Pregnant CD-1 mice; 5 mg/kg/d) was 4.3 (-1.8, 10.5) % gain from embryonic day 0.5, the “Relative GWG, E11.5 estimate (95% CI)” value (Pregnant CD-1 mice; 5 mg/kg/d) was 21.6 (5.4, 37.9) % gain from embryonic day 0.5 and the “Relative GWG, E17.5 Estimate (95% CI)” value (Pregnant CD-1 mice; 5 mg/kg/d) was 50.7 (12.2, 89.0) % gain from embryonic day 0.5. For the same molecule, the “Relative GWG, E11.5 Estimate (95% CI) relative to VC” value (Pregnant CD-1 mice; 5 mg/kg/d, 5 mg/kg/day) was 14.5 (1.4, 27.5) % gain from embryonic day 0.5 and 14.5 % gain from embryonic day 0.5, the “Relative GWG, E11.5 Estimate (95% CI) relative to VC” value (Pregnant CD-1 mice; fourth column (after E17.5 estimate), 1 mg/kg/d) was 8.7 (-4.3, 21.8) % gain from embryonic day 0.5 and the “Relative GWG, E11.5 Estimate (95% CI) relative to VC” value (Pregnant CD-1 mice; second column, 1 mg/kg/d) was -1.1 (-7.4, 5.1) % gain from embryonic day 0.5. For the same molecule, the “Liver ultrastructure (TEM)” value (maternal liver; 1 mg/kg/d) was “enlarged hepatocytes with increased cytoplasmic organelles consistent with mitochondria and peroxisomes, evenly dispersed glycogen, and small vacuoles in the centrilobular regions”, the “Liver ultrastructure (TEM)” value (maternal liver; 5 mg/kg/d) was “abnormal ultrastructure” and the Amniotic fluid concentration ([1]; E11.5, 1 mg/kg/d) was 4.6 ± 2.8 µg/mL. The Maternal liver concentration ([1]; E11.5, 1 mg/kg/d) was 48.3 ± 12.5 µg/g, the Maternal serum concentration ([1]; E11.5, 1 mg/kg/d) was 25.4 ± 3.7 µg/mL and the Whole embryo concentration ([1]; E11.5, 1 mg/kg/d) was 0.80 ± 0.10 µg/g. The Amniotic fluid concentration ([1]; E11.5, 5 mg/kg/d) was 8.8 ± 2.7 µg/mL, the Maternal liver concentration ([1]; E11.5, 5 mg/kg/d) was 151.5 ± 18.5 µg/g and the Maternal serum concentration ([1]; E11.5, 5 mg/kg/d) was 117.3 ± 20.6 µg/mL. The Whole embryo concentration ([1]; E11.5, 5 mg/kg/d) was 2.34 ± 0.27 µg/g and 2.34 ± 0.3 µg/g, the Female embryo concentration ([1]; E17.5, 1 mg/kg/d) was 5.78 ± 0.81 µg/g and the Male embryo concentration ([1]; E17.5, 1 mg/kg/d) was 5.78 ± 0.82 µg/g. The Maternal liver concentration ([1]; E17.5, 1 mg/kg/d) was 181.1 ± 46.0 µg/g, the Maternal serum concentration ([1]; E17.5, 1 mg/kg/d) was 18.7 ± 3.2 µg/mL and the Whole embryo concentration ([1]; E17.5, 1 mg/kg/d) was 5.78 ± 0.71 µg/g. The Female embryo concentration ([1]; E17.5, 5 mg/kg/d) was 16.1 ± 2.75 µg/g, the Male embryo concentration ([1]; E17.5, 5 mg/kg/d) was 16.9 ± 1.88 µg/g and the Maternal liver concentration ([1]; E17.5, 5 mg/kg/d) was 159.2 ± 21.7 µg/g. The Maternal serum concentration ([1]; E17.5, 5 mg/kg/d) was 95.1 ± 14.1 µg/mL, the Whole embryo concentration ([1]; E17.5, 5 mg/kg/d) was 16.4 ± 1.75 µg/g and the “Maximum bioaccumulation in maternal liver” value ([1]; by E17.5, regardless of PFOA dose group) was 160–180 μg PFOA/g liver.
